Laboratory results published in patent US6673608B1, “Somatic embryogenic regeneration of Acacia mangium” (Institute of Molecular Agrobiology, priority 2002, dated 2004).

Assays:
[1] = system: A. mangium immature embryo axes; assay: Embryogenic callus induction from immature embryo axes; assay type: cell-based, Acacia mangium; settings: immature embryo axes on MS basal medium
Procedure: One and half months old immature green pods were collected from twenty-meter high adult A. mangium Willd. trees at Science Park Drive of Singapore. Green seeds were gently isolated from pods and washed with sterile double deionized water (ddH2O) 4-5 times. After green seeds were surface sterilised with 30% market clorox bleach (NaClO) for 5 minutes and washed with sterile ddH2O 5 times, the seeds were sterilised again with 0.1% HgCl2 for 6 minutes and washed with sterile ddH2O 5 times. Seed coats were removed with sterilised forceps and embryos were isolated. Embryo axes (EA) (FIG. 1A) were gently separated with sterile forceps and used as explants for embryogenic callus induction.
All media were adjusted to pH 5.8 after autoclaving at 121° C. for 25 min. Plant growth regulators tested in experiments were added into media after autoclaving but other additional substances were added into media before autoclaving. All cultures were maintained under the warm white fluorescent lights at a range of irradiance of 23.41-26.01 μmol.s^−1m^−2, with 16 h photoperiod and at 28° C. […]

globular somatic embryos = assay: Somatic embryo maturation (two-step maturation procedure); assay type: cell-based, Acacia mangium; settings: ½ MS maturation media
Procedure: All media were adjusted to pH 5.8 after autoclaving at 121° C. for 25 min. Plant growth regulators tested in experiments were added into media after autoclaving but other additional substances were added into media before autoclaving. All cultures were maintained under the warm white fluorescent lights at a range of irradiance of 23.41-26.01 μmol.s^−1m^−2, with 16 h photoperiod and at 28° C.
Globular embryos (FIGS. 1B-C) induced from induction medium containing IAA 0.25 mg/l and TDZ 2.0 mg/l (AM-304) were cultured on ½ MS basal medium supplemented with 0-5.0 mg/l of GA3, 30-50 g/l of sucrose, Vc 100 mg/l, Asn 150 mg/l, CH 100 mg/l, Gln 150 mg/l, Pro 150 mg/l, phytagel 0.35% (g/l), and activated charcoal 0.1% for thirty days. Somatic embryos were then transferred onto maturation medium AM-425 and cultured for 40 days. Cotyledon somatic embryos (mature somatic embryos) were then transferred onto the medium AM-424 for germination. Each experiment was repeated twice with a total of 250 globular somatic embryos for each medium combination. Seedlings were transferred to ½ MS basal medium containing sucrose 20 g/l as well as phytagel 0.35% and cultured for two months before being transferred to pot soil consisting of peat soil: sand (3:1). […]

| Structure (SMILES) | embryogenic callus induction / somatic embryogenesis (result in words) [1] | development of globular somatic embryos to torpedo and cotyledon stage (result in words) (globular somatic embryos) |
| --- | --- | --- |
| O=C(Nc1ccccc1)Nc1cnns1 [TDZ, 1-Phenyl-3-(1,2,3-thiadiazol-5-yl)Urea] | effective to induce embryogenic callus |  |
| C=C1C[C@]23C[C@@]1(O)CC[C@H]2[C@@]12C=C[C@H](O)[C@@](C)(C(=O)O1)[C@H]2[C@@H]3C(=O)O [GA3, Gibberellic Acid] |  | promoted somatic embryo maturation |
